Assay results taken from ChEMBL document CHEMBL5465560, “Selectivity Literature for EUbOPEN Chemogenomic Library” (2024).

What was measured:
[1] = target: T1, Ephrin type-A receptor 1 (Homo sapiens) (UniProt P21709); experiment: Selectivity interaction (KinomeScan (DiscoverX)) EUB0000666a EPHA1; conditions: at 10 µM
T1 sequence (whole entry): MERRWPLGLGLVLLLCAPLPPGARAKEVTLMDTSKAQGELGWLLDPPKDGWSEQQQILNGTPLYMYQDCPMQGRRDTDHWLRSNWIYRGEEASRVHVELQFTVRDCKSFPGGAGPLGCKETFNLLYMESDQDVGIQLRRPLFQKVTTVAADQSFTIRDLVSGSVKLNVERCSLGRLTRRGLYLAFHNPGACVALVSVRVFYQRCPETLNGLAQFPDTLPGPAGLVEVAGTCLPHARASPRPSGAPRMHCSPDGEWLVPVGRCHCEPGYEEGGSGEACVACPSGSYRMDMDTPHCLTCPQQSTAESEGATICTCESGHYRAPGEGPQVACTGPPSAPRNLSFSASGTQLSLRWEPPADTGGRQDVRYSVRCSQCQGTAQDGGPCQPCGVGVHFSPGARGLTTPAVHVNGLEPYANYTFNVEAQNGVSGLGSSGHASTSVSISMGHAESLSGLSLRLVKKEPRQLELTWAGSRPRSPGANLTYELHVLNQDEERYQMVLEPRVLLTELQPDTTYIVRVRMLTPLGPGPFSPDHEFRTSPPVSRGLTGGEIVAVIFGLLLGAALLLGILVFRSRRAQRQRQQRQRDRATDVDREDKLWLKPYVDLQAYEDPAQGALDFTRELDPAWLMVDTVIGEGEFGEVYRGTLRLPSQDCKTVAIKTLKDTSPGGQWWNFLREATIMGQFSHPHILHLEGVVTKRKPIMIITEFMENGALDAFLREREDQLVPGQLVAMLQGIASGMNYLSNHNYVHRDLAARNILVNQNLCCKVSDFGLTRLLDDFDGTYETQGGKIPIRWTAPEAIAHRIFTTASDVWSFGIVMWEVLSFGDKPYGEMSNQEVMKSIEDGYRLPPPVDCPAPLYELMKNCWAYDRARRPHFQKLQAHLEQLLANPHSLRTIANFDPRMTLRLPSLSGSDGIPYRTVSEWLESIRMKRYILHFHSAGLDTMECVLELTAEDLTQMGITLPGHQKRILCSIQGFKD

[2] = target: T2, STE20-related kinase adapter protein alpha (Homo sapiens) (UniProt Q7RTN6); experiment: Selectivity interaction (ActivX KiNativ screen (kinase selectivity in THP-1 cell lysates)) EUB0000639a STRADA; format: subcellular; conditions: lysate, at 0.04 µM
T2 sequence (whole entry): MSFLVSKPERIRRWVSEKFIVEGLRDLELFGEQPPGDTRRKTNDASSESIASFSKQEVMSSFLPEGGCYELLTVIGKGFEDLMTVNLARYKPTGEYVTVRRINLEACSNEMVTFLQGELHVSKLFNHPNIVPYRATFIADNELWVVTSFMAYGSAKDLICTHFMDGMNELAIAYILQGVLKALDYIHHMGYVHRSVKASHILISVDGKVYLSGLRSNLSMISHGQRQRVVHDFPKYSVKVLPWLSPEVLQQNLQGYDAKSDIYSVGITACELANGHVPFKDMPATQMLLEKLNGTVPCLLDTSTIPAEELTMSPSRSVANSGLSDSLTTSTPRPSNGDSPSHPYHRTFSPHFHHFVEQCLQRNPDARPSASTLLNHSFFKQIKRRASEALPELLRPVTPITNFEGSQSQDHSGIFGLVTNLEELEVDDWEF

[3] = target: Calcium/calmodulin-dependent protein kinase kinase 1 (Homo sapiens) (UniProt Q8N5S9); experiment: Selectivity interaction (KinomeScan (DiscoverX)) EUB0000595a CAMKK1; conditions: at 10 µM
Calcium/calmodulin-dependent protein kinase kinase 1 (Homo sapiens), sequence (Q8N5S9 whole entry, looked up): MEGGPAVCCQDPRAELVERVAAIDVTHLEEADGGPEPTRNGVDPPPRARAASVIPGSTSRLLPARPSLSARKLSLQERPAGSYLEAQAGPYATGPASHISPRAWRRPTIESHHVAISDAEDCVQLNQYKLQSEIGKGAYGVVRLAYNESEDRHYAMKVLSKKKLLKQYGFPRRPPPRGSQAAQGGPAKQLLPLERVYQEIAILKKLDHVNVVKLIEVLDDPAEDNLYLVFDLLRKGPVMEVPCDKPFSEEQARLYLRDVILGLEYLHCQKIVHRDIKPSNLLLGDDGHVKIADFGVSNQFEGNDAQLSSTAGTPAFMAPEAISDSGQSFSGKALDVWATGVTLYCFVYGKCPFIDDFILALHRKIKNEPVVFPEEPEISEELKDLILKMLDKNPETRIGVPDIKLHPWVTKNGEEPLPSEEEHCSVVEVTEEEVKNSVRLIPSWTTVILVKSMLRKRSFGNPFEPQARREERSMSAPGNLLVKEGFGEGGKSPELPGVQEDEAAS

[4] = target: Glycogen synthase kinase-3 alpha (Homo sapiens, UniProt P49840); experiment: Selectivity interaction (KinomeScan (DiscoverX)) EUB0000092b GSK3A; conditions: at 10 µM
Glycogen synthase kinase-3 alpha, sequence (P49840 2-483 limits assumed): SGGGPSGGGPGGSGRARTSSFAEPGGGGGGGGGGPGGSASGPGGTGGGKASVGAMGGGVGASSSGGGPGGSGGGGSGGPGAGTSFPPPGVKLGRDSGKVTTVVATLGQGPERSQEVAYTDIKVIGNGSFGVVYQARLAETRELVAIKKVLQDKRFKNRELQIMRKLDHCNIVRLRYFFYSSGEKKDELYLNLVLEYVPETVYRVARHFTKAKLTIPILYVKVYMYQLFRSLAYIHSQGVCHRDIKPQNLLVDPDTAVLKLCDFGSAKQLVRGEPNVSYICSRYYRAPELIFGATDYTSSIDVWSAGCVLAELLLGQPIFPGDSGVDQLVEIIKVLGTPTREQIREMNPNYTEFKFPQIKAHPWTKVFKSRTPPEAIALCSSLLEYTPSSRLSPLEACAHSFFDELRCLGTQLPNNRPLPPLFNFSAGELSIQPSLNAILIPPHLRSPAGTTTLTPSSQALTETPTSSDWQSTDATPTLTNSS

[5] = target: ALK tyrosine kinase receptor (Homo sapiens, UniProt Q9UM73); experiment: Selectivity interaction (KinomeScan (DiscoverX)) EUB0000045b ALK
ALK tyrosine kinase receptor, sequence (Q9UM73 19-1620 limits assumed): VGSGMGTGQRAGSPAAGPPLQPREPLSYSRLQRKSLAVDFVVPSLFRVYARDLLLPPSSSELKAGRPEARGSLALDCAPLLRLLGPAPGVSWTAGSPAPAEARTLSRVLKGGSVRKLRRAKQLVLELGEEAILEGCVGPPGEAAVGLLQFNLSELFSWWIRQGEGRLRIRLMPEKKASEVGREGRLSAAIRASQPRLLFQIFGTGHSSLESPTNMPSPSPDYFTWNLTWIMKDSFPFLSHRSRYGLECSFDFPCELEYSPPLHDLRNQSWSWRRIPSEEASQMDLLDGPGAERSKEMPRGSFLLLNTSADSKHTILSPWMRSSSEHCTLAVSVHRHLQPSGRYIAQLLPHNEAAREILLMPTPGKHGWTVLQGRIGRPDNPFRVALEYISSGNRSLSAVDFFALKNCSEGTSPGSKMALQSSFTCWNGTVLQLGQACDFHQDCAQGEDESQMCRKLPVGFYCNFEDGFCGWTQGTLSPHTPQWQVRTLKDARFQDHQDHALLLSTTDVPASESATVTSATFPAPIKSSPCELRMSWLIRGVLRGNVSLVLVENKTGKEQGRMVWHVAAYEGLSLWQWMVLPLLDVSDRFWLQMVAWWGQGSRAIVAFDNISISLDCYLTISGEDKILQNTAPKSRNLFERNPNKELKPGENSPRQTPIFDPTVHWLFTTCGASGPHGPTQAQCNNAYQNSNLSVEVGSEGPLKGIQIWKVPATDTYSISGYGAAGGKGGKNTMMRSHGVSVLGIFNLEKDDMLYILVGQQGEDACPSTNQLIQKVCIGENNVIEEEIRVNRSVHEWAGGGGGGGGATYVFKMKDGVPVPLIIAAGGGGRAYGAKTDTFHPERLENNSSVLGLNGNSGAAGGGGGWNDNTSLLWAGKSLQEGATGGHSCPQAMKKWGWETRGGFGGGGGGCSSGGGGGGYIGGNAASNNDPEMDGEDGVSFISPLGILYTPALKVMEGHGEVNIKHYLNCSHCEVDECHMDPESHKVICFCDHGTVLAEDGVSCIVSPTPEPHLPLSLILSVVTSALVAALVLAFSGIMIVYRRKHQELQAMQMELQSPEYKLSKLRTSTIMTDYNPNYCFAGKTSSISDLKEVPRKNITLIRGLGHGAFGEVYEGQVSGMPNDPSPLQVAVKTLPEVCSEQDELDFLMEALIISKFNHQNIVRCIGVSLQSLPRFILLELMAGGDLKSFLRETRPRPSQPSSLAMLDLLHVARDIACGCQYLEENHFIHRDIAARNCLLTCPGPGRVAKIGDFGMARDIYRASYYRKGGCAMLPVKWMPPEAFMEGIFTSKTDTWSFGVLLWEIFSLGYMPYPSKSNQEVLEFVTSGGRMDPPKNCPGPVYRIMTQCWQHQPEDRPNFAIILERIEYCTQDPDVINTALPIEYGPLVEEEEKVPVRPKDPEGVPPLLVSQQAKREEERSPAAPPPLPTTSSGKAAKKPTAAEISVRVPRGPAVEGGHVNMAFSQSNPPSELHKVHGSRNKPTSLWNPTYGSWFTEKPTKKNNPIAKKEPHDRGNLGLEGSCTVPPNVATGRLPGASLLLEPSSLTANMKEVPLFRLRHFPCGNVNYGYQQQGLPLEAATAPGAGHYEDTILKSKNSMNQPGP

[6] = target: Ribosomal protein S6 kinase alpha-5 (Homo sapiens) (UniProt O75582); experiment: Selectivity interaction (KinomeScan (DiscoverX)) EUB0000655a RPS6KA5; conditions: at 10 µM
Ribosomal protein S6 kinase alpha-5 (Homo sapiens), sequence (O75582 whole entry, looked up): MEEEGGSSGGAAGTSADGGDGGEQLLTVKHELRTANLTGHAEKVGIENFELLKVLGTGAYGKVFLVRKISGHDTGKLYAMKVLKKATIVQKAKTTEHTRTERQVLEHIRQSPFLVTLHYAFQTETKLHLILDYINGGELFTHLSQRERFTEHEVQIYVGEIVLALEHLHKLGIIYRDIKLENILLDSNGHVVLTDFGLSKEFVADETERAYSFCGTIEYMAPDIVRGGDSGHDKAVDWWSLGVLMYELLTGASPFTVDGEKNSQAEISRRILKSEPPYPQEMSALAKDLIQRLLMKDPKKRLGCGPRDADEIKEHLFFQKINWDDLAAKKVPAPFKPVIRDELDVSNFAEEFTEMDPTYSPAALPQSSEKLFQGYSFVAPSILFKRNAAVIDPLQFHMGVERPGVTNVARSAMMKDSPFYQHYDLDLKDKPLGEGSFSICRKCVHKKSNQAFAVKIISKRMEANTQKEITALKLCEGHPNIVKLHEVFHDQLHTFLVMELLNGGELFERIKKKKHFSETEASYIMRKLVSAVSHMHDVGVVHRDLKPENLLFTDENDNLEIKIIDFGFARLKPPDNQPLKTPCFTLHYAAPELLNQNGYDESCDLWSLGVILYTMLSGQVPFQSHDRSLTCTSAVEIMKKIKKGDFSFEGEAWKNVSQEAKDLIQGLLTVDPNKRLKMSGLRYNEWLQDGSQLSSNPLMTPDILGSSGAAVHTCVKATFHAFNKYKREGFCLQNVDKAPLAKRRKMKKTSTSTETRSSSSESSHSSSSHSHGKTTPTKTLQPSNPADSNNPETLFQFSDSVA

[7] = target: Insulin receptor-related protein (Homo sapiens) (UniProt P14616); experiment: Selectivity interaction (SelectScreen profiling (Invitrogen)) EUB0000607a INSRR; conditions: at 2 µM
Insulin receptor-related protein (Homo sapiens), sequence (P14616 27-742 limits assumed): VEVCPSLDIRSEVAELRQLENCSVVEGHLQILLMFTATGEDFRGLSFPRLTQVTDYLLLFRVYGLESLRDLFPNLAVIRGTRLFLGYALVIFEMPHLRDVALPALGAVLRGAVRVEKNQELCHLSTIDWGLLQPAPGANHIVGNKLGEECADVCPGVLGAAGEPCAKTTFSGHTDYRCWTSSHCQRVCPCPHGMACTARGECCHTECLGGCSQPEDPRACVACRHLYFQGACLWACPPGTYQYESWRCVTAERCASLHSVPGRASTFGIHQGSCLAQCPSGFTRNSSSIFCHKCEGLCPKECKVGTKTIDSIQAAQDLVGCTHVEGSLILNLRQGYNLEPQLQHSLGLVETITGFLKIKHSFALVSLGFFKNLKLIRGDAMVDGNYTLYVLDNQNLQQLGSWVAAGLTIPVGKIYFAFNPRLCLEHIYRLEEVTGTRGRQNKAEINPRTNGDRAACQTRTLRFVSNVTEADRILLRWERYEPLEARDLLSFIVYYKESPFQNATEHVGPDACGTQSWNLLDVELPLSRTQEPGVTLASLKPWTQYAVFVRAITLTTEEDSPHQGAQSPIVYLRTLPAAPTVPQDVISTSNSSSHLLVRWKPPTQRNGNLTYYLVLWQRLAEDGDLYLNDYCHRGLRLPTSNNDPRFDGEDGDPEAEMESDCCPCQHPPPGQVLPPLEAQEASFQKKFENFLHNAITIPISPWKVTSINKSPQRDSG
Insulin receptor-related protein (Homo sapiens), sequence (P14616 747-1297 limits assumed): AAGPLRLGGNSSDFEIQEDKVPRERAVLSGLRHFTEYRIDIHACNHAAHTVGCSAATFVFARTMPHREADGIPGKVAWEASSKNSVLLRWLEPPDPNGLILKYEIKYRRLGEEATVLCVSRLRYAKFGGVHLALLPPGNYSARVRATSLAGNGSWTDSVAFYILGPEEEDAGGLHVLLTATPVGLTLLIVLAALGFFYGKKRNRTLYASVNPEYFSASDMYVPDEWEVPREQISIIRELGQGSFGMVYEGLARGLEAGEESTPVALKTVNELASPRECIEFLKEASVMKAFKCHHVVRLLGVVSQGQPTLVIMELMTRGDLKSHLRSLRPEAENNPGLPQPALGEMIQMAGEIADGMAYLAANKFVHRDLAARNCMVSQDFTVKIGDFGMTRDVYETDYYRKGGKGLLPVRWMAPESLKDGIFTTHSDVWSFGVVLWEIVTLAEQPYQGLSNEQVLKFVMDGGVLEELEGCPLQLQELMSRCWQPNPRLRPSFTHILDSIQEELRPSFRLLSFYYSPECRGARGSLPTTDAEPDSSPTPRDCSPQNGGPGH

[8] = target: T3, Serine/threonine-protein kinase Sgk1 (Homo sapiens) (UniProt O00141); experiment: Selectivity interaction (ProQinase) EUB0000171b SGK1
T3 sequence (whole entry): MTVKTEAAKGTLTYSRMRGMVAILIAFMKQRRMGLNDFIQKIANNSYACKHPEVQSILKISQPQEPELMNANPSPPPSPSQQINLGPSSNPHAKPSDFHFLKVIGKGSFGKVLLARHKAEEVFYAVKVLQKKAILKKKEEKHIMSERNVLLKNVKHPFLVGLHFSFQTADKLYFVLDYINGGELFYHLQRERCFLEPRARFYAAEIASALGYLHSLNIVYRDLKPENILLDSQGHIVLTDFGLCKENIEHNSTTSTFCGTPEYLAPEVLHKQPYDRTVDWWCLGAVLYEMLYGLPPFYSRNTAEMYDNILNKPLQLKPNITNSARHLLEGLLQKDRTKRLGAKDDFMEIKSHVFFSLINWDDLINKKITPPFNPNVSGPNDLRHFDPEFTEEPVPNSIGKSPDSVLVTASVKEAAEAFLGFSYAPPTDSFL

[9] = target: T4, Tyrosine-protein kinase Tec (Homo sapiens) (UniProt P42680); experiment: Selectivity interaction (ProQinase) EUB0000171b TEC
T4 sequence (whole entry): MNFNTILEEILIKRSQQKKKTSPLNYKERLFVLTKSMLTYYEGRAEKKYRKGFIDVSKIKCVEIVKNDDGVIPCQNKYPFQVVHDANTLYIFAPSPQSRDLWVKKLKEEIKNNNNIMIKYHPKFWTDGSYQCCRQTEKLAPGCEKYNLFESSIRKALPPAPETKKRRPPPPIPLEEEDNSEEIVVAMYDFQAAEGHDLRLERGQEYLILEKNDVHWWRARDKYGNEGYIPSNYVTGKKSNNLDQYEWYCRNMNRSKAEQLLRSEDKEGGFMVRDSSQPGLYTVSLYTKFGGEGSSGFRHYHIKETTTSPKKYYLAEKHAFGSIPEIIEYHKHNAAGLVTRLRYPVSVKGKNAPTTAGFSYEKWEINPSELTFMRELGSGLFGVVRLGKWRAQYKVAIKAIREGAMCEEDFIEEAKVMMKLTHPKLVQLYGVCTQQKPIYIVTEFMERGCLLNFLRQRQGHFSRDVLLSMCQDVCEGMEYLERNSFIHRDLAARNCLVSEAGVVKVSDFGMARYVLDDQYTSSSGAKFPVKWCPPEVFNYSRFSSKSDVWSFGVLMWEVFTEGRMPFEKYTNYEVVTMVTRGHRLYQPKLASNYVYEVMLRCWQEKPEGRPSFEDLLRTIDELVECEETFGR

In the case of `O=C(NOC[C@H](O)CO)c1ccc(F)c(F)c1Nc1ccc(I)cc1F`, the % of control [1] was 91%.
`CC[C@@H]1[C@H](F)C(=O)N[C@@H]1COc1nccc2cc(C(N)=O)c(OC)cc12` [ZIMLOVISERTIB] showed a % of inhibition [2] of -6%.
Work on `COCC(=O)NC/C=C/c1ccc2ncnc(Nc3ccc(Oc4ccc(C)nc4)c(C)c3)c2c1` [CP-724714] yielded a % of control [3] of 96%.
`CCC(=O)N1CCN(c2ccc(-n3c(=O)ccc4cnc5ccc(-c6cnc7ccccc7c6)cc5c43)cc2C(F)(F)F)CC1` gave a % of control [4] of 93%.
For `C=CC(=O)Nc1cc(-n2c(=O)ccc3cnc4ccc(-c5ccc(NS(C)(=O)=O)cc5)cc4c32)ccc1C`, the % of control ([5]; at 1 µM) was 100% and the % of control ([5]; at 10 µM) was 100%.
`CN(C)CCOc1ccc(-c2nc(-c3ccncc3)c(-c3ccc4c(c3)CC/C4=N\O)[nH]2)cc1` was tested, and the % of control [6] was 100%.
For `CNC(=O)Nc1ccc(-c2nc(N3CC4CCC(C3)O4)c3cnn(C4CCC5(CC4)OCCO5)c3n2)cc1`, the % of inhibition [7] was 6%.
In the case of `C=CC(=O)Nc1cccc(C(=O)Nc2ccc(Nc3cc(-c4[nH]c(SC)nc4C)ccn3)cc2)c1`, the % of control ([8]; at 1 µM) was 49%, the % of control ([8]; at 5 µM) was 15% and the % of control ([9]; at 1 µM) was 99%. For the same molecule, the % of control ([9]; at 5 µM) was 81%.
